target: T1, PI3Kδ (PI3 Kd) (Homo sapiens, UniProt O00329); assay: PI3K HTRF enzymatic inhibition assay (cell-free), PI3Kd; assay type: biochemical
T1 construct: purchased Millipore
Protocol: PI3K α, β, δ and γ Enzymatic Inhibition Assays
Compounds were screened for their ability to inhibit PI3Kα (PI3Kα), PI3Kβ (PI3 Kb), PI3Kδ (PI3 Kd) and PI3Kγ (PI3 Kg) using a cell-free based PI3K HTRF™ assay (Millipore, ref. #33-017) All reagents to perform the reactions were prepared according to the manufacturer protocol. All PI3K enzymes were recombinant and were purchased at Millipore.
These concentrations were final in the assay. • 3) A reservoir plate containing Adenosine TriPhosphate (ATP) diluted in the Millipore kit buffer was prepared for each isoform. […] Incubation was done for 8 minutes (for all four isoforms) then the reaction was stopped by addition of the Stop solution. The Detection solution was added. These solutions were prepared previously according to the kit specifications.

T1 sequence (O00329 whole entry): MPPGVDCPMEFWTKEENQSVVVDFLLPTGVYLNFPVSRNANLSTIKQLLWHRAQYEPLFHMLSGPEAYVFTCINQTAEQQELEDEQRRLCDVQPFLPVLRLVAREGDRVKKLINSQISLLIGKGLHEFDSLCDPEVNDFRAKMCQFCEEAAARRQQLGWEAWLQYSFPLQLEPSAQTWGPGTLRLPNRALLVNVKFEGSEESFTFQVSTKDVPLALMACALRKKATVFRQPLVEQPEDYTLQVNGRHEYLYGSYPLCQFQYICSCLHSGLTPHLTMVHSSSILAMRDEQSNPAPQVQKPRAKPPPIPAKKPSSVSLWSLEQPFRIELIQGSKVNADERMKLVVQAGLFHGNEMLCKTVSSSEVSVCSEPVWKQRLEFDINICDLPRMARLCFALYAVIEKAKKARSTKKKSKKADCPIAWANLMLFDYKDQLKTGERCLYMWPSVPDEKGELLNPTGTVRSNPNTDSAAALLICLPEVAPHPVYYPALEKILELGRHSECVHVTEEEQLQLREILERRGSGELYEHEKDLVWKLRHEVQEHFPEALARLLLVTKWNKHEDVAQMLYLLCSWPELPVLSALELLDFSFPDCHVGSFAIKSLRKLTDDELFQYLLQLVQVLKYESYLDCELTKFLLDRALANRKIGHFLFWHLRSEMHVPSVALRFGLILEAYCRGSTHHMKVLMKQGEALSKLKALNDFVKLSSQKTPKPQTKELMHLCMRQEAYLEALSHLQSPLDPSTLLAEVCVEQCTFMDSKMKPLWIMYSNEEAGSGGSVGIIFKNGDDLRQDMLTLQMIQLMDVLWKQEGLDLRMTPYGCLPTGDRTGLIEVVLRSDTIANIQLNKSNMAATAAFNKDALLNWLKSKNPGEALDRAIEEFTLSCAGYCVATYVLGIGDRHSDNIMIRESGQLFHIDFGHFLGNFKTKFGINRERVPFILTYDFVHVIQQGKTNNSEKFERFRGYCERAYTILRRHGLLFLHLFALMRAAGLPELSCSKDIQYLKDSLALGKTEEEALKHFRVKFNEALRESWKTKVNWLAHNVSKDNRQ
T1 sequence (P27986 whole entry partner): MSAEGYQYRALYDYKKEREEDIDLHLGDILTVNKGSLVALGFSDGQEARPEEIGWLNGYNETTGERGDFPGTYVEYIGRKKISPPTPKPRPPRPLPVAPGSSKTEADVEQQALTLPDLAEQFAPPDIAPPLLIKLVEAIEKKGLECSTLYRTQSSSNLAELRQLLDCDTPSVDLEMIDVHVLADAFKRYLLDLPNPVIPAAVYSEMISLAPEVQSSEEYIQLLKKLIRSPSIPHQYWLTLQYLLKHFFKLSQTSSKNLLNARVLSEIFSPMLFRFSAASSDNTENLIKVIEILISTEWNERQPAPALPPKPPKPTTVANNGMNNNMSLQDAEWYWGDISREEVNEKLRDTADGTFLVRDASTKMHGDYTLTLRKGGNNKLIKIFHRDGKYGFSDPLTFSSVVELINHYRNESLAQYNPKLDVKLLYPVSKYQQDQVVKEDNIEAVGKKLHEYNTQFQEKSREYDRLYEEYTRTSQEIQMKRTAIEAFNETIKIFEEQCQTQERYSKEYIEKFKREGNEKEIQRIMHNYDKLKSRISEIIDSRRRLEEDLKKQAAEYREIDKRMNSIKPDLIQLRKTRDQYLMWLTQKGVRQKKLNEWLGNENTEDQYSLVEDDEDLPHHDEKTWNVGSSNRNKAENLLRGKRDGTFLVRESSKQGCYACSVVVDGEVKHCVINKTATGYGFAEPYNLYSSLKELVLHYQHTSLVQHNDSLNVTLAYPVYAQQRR

Row | SMILES | IC50 [nM]
1 | O=c1c2cccn2nc([C@@H]2CCCN2c2ncnc3[nH]cnc23)n1-c1ccccc1 [Example 44, (S)-2-(1-(9H-Purin-6-yl)pyrrolidin-2-yl)-3-phenylpyrrolo[1,2-f][1,2,4]triazin-4(3H)-one] | 29
2 | C[C@H](Nc1ncnc(N)c1C#N)c1nn2cccc2c(=O)n1C1CCOCC1 [Example 136, (S)-4-Amino-6-(1-(4-oxo-3-(tetrahydro-2H-pyran-4-yl)-3,4-dihydropyrrolo[1,2-f][1,2,4]triazin-2-yl)ethylamino)pyrimidine-5-carbonitrile] | 24
3 | C[C@H](Nc1ncnc(N)c1C#N)c1nn2ccc(Br)c2c(=O)n1-c1ccccc1 [Example 144, (S)-4-Amino-6-(1-(5-bromo-4-oxo-3-phenyl-3,4-dihydropyrrolo[1,2-f][1,2,4]triazin-2-yl)ethylamino)pyrimidine-5-carbonitrile] | 1
4 | N#Cc1c(N)ncnc1N1CC(F)(F)C[C@H]1c1nn2cccc2c(=O)n1-c1ccccc1 [Example 73, (S)-4-Amino-6-(4,4-difluoro-2-(4-oxo-3-phenyl-3,4-dihydropyrrolo[1,2-f][1,2,4]triazin-2-yl)pyrrolidin-1-yl)pyrimidine-5-carbonitrile] | 31
5 | C[C@H](Nc1ncnc2[nH]cnc12)c1nn2cccc2c(=O)n1-c1cc(F)cc(F)c1 [Example 37, (S)-2-(1-(9H-Purin-6-ylamino)ethyl)-3-(3,5-difluorophenyl)pyrrolo[1,2-f][1,2,4]triazin-4(3H)-one] | 15
6 | C[C@H](Nc1ncnc(N)c1C#N)c1nn2cc(F)cc2c(=O)n1-c1ccccc1 [Example 75, (S)-4-Amino-6-(1-(6-fluoro-4-oxo-3-phenyl-3,4-dihydropyrrolo[1,2-f][1,2,4]triazin-2-yl)ethylamino)pyrimidine-5-carbonitrile] | 17
7 | Cc1cc(-n2c([C@H](C)Nc3ncnc(N)c3C#N)nn3cccc3c2=O)n[nH]1 [Example 127, (S)-4-Amino-6-(1-(3-(5-methyl-1H-pyrazol-3-yl)-4-oxo-3,4-dihydropyrrolo[1,2-f][1,2,4]triazin-2-yl)ethylamino)pyrimidine-5-carbonitrile] | 89
8 | O=c1c2cccn2nc([C@H](CO)Nc2ncnc3[nH]cnc23)n1-c1ccccc1 [Example 62, (R)-2-(1-(9H-Purin-6-ylamino)-2-hydroxyethyl)-3-phenylpyrrolo[1,2-f][1,2,4]triazin-4(3H)-one] | 73
9 | C[C@H](Nc1ncnc(N)c1C#N)c1nn2cccc2c(=O)n1-c1cn[nH]c1 [Example 124, (S)-4-Amino-6-(1-(4-oxo-3-(1H-pyrazol-4-yl)-3,4-dihydropyrrolo[1,2-f][1,2,4]triazin-2-yl)ethylamino)pyrimidine-5-carbonitrile] | 11
10 | C[C@H](Nc1ncnc(N)c1C#N)c1nn2ccc(C#N)c2c(=O)n1-c1cc(Cl)cc(Cl)c1 [Example 104, (S)-2-(1-(6-Amino-5-cyanopyrimidin-4-ylamino)ethyl)-3-(3,5-dichlorophenyl)-4-oxo-3,4-dihydropyrrolo[1,2-f][1,2,4]triazine-5-carbonitrile] | 36
11 | C[C@H](Nc1ncnc(N)c1C#N)c1nn2ccc(C#N)c2c(=O)n1-c1cccc(C(F)(F)F)c1 [Example 176, (S)-2-(1-(6-Amino-5-cyanopyrimidin-4-ylamino)ethyl)-4-oxo-3-(3-(trifluoromethyl)phenyl)-3,4-dihydropyrrolo[1,2-f][1,2,4]triazine-5-carbonitrile] | 32
12 | CC[C@H](Nc1nc(N)nc2[nH]cnc12)c1nn2cccc2c(=O)n1-c1ccccc1 [Example 17, (S)-2-(1-(2-Amino-9H-purin-6-ylamino)propyl)-3-phenylpyrrolo[1,2-f][1,2,4]triazin-4(3H)-one] | 9
